Measured values published in US11286268B1, “EIF4E-inhibiting compounds and methods” (EFFECTOR THERAPEUTICS, INC., priority 2019, dated 2022).
Read-outs that look alike come from different tables or passages of the source.

Molecular target: recombinant eIF4E (Homo sapiens (Human), UniProt P06730)
Experiment: Fluorescence polarization competition assay for eIF4E binding potency
How it was run: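 IC50 derived from fluorescence polarization over an 8-point, 3-fold compound series after 30 min room-temperature equilibration in the dark. Mix: eIF4E 75 nM pre-bound 5 min to 20 nM EDA-m^7GDP-ATTO-550; buffer 20 mM Tris pH 7.5, 100 mM NaCl, 1 mM DTT, 0.02% Tween-20; DMSO 1%.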

[1] = fluorescence polarization competition, 75 nM recombinant eIF4E, 20 nM EDA-m7GDP-ATTO-550, IC50 class, read-out: elF4E FP
[2] = inhibition of eIF4E/EDA-m7GDP-ATTO-550 binding by 50%, Table 4B calculated values, read-out: IC50
[3] = inhibition of eIF4E/EDA-m7GDP-ATTO-550 binding, calculated IC50 values, Table 4B, read-out: IC50

recombinant eIF4E, sequence (P06730 whole entry): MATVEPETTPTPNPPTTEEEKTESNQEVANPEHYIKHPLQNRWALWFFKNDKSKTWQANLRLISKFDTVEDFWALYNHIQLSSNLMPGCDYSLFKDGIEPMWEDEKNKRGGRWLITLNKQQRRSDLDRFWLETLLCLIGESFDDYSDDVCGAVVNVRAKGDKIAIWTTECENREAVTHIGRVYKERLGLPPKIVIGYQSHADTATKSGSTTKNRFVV

| Structure (SMILES) | IC50 [1] [nM] | IC50 [2] [nM] | IC50 [3] [nM] |
| --- | --- | --- | --- |
| Cc1cc(-c2cc(Cl)ccc2OCCn2c(C)nc3cc(C)c(C)c(C#N)c3c2=O)c2scc(C(=O)O)c2n1 [compound 628] | < 50 | 28.5 | – |
| Cc1nc2cc(C(F)(F)F)c(N3CCN(c4ccccn4)CC3)c(C#N)c2c(=O)n1CCOc1ccc(Cl)cc1-c1cccc(C(=O)O)c1 [compound 379] | < 50 | 26.7 | – |
| Cc1nc2cnc(N3CCN(C4(CF)CC4)CC3)c(C#N)c2c(=O)n1CCOc1ccc(Cl)cc1-c1ccnc2c(C(=O)O)csc12 [compound 1336] | – | – | 13 |
| Cc1nc2cc(OC(F)F)c(Cl)c(C#N)c2c(=O)n1CCOc1ccc(Cl)cc1-c1ccnc2c(C(=O)O)csc12 [compound 537] | < 50 | 46.6 | – |
| N#Cc1cc(C(F)(F)F)cc2ncn(CCOc3ccc(Cl)cc3-c3ccnc4c(C(=O)O)csc34)c(=O)c12 [compound 164] | – | 16.4 | – |
| Cc1nc2cc(C(F)(F)F)c(N3CCN(C)CC3)c(C#N)c2c(=O)n1CCOc1ccc(Cl)cc1-c1ccnc2c(Cl)csc12 [compound 1247] | < 50 | – | 35.5 |
| Cc1nc2cc(C(F)(F)F)c(CN(C)C)c(C#N)c2c(=O)n1CC#Cc1ccc(Cl)cc1-c1ccnc2c(C(=O)O)csc12 [compound 553] | < 50 | 13.4 | – |
| Cc1nc2cc(C(F)(F)F)c(N3CCN(C)CC3)c(C#N)c2c(=O)n1CC#Cc1ccc(Cl)cc1-c1ccnc2c(C(=O)O)csc12 [compound 1212] | < 50 | – | 44.2 |
| Cc1cc(-c2cc(Cl)ccc2OCCn2c(C)nc3cc(C(F)(F)F)cc(C#N)c3c2=O)c2scc(C(=O)O)c2c1F [compound 333] | – | 24.9 | – |
| N#Cc1cc2c(=O)n(CCOc3ccc(Cl)cc3-c3ccc(C#N)c(C(=O)O)c3)cnc2cn1 [compound 94] | > 1000 | 1420 | – |
| COc1ccc(C#N)c2c(=O)n(CCOc3ccc(Cl)cc3-c3ccnc4c(C(=O)O)csc34)c(C)nc12 [compound 403] | < 50 | 12.6 | – |
| Cc1nc2cc(C(F)(F)F)cc(C#N)c2c(=O)n1CCOc1ccc(Cl)cc1-c1cn(C)c(=O)c2c(C(=O)O)csc12 [compound 590] | < 50 | 2.26 | – |
| CONC(=O)c1csc2c(-c3cc(Cl)ccc3OCCn3c(C)nc4cc(F)c(F)c(C#N)c4c3=O)ccnc12 [compound 308] | 50 to 1000 | 811 | – |
| Cc1nc2cnc(N3CC4(CN(CCF)C4)C3)c(C#N)c2c(=O)n1CC#Cc1ccc(Cl)cc1-c1ccnc2c(C(=O)O)csc12 [compound 892] | < 50 | 36 | – |
| Cc1cc(-c2cc(Cl)ccc2OCCn2c(C)nc3cc(Cl)c(N4CCC4(C)C)c(C#N)c3c2=O)c2scc(C(=O)O)c2n1 [compound 918] | < 50 | 4.37 | – |
| Cc1nc2c(S(C)(=O)=O)ccc(C#N)c2c(=O)n1CCOc1ccc(Cl)cc1-c1ccnc2c(C(=O)O)csc12 [compound 229] | < 50 | 22.2 | – |
| Cc1cc(-c2cc(Cl)ccc2C#CCn2c(C)nc3cc(C(F)(F)F)c(Cl)c(C#N)c3c2=O)c2scc(C(=O)O)c2n1 [compound 561] | 50 to 1000 | 56.2 | – |
| N#Cc1cccc2c1c(=O)n(CCOc1ccc(Cl)cc1-c1ccnc3c(C(=O)O)csc13)c1ccccc21 [compound 657] | < 50 | 45.7 | – |
| Cc1nc2cnc(N(C)C3CCN([C@H]4C[C@H](F)C4)CC3)c(C#N)c2c(=O)n1CC#Cc1ccc(Cl)cc1-c1ccnc2c(C(=O)NS(=O)(=O)c3cccnc3)csc12 [compound 1794] | – | – | 9.28 |
| Cc1cc(-c2cc(Cl)ccc2OCCn2c(C)nc3cc(C(F)(F)F)c(-c4ccnc5c4CCN5)c(C#N)c3c2=O)c2scc(C(=O)O)c2n1 [compound 1192] | < 50 | – | 48.8 |
| O=C(O)c1cccc(-c2cc(Cl)ccc2OCCn2ccc3ncccc3c2=O)c1 [compound 10] | > 1000 | 6510 | – |
| Cc1cc(-c2cc(Cl)ccc2OCCn2c(C)nc3cnc(OCc4ccccn4)c(C#N)c3c2=O)c2scc(C(=O)O)c2n1 [compound 1039] | < 50 | 21.7 | – |
| N#Cc1cc2c(=O)n(CCOc3ccc(Cl)cc3-c3ncc(C(=O)O)s3)cnc2cn1 [compound 52] | > 1000 | > 3000 | – |
| Cc1nc2cc(S(C)(=O)=O)cc(C#N)c2c(=O)n1CCOc1ccc(Cl)cc1-c1ccnc2c(C(=O)O)csc12 [compound 194] | < 50 | 35.8 | – |
| Cc1nc2cc(S(=O)(=O)N(C)C)c(F)c(C#N)c2c(=O)n1CCOc1ccc(Cl)cc1-c1ccnc2c(C(=O)O)csc12 [compound 280] | < 50 | 41.2 | – |
| CNc1nc2c(F)ccc(CCOc3ccc(Cl)cc3-c3cccc(C(=O)O)c3)c2c(=O)[nH]1 [compound 171] | 50 to 1000 | 194 | – |
| C=Cc1ncc2nc(C)n(CCOc3ccc(Cl)cc3-c3cc(C)nc4c(C(=O)O)csc34)c(=O)c2c1C#N [compound 809] | < 50 | 16 | – |
